Results: US20250144069A1, “BILOBALIDE DERIVATIVE COMPOUNDS FOR TREATING NEUROLOGICAL DISEASES AND CANCERS” (The Chinese University of Hong Kong, priority 2023, published 2025)

Legend:
GPX4 = GPX4 protein level by Western-blot; type: cell-based
Text: As mentioned above, RSL3 treatment results in an oxidized environment in cells, which promotes the CMA to scavenge damaged proteins including GPX4 or glyceraldehyde-3-phosphate dehydrogenase (GAPDH), a well-known CMA substrate. To gain insights into the mechanism of action of bilobalide analogue XBB-037 against the RSL3-induced ferroptosis, HMC3 cells were pre-treated with RSL3, followed by treatment with or without bilobalide analogue XBB-037.
(§1) In FIN56 assay, HMC3 (300,000 cells per well on 6-well plate) was pre-treated with FIN56 (2.5, 1.25, 0.625 μM) for 2 h, followed by 8 h treatment of DMSO only (0.1%) or XBB-037 (50 μM). In RSL3 assay, HMC3 (300,000 cells per well on 6-well plate) was pre-treated with RSL3 (750, 500, 250 nM) for 2 h, followed by 4 h or 8 h treatment of DMSO only (0.1%) or XBB-037 (50 μM). […] Antibodies for GPX4 (52455, CST) was used at 1:500 dilution, β-Actin (AC026, ABclonal) was used at 1:400,000 dilution, GAPDH (AC035, ABclonal) was used at 1:3000 dilution. […] Band intensity was normalized by image lab software.
Now referring to FIGS. 7E-7F, GPX4 levels in HMC3 cells pre-treated with RSL3 are shown. Protein levels of GPX4 and […] at 0, 250, 500 or 750 nM RSL3 were measured by Western-blot. HMC3 cells were pretreated with RSL3 for 2 hours and then treated with or without 50 μM bilobalide analogue XBB-037 for 4 hours.
In addition to […], FIN56 was further used to investigate the GPX4 regulation of bilobalide analogue XBB-037. As mentioned above, FIN56 is a Class III ferroptosis inducer, which causes the depletion of cellular GPX4 levels without affecting GPX4 activity. In this experiment, HMC3 cells were pretreated with FIN56 for 2 hours and then treated with or without 50 μM XBB-037 for 8 hours. Protein levels were measured by Western-blotting using indicated antibodies. Data were plotted as mean±s.d., n=3 technical replicates. **p<0.01. Statistical analyses were performed by two-way ANOVA with multiple comparisons using Two-stage linear step-up procedure of Benjamini, Krieger and Yekutieli multiple comparisons test. […]

HMC3 cells [1] = assay: Cytotoxicity, cell viability of HMC3 cells; type: cell-based; conditions: 24 h treatment
Text: Now referring to FIG. 11A, a chart showing the cell viability (%) of HMC3 cells treated with SXQ087-1, XBB-037 or bilobalide.

[2] = test system: HT22 mouse hippocampal cell line; assay: RSL3-induced ferroptosis model, cell viability (CCK-8)
Protocol: In this example, the anti-ferroptotic properties of the BB analogues described in preceding examples were evaluated by a RSL3-induced ferroptosis model. […] To evaluate the anti-ferroptosis activity of BB analogues, we developed a phenotypic screening based on RSL3-induced ferroptosis model on HT22 mouse hippocampal cell line, HMC3 microglial cell line and BV-2 murine microglial cell line which were co-treated or pre-treated with RSL3 and BB analogues for 2-24 h, and the cell viability was subsequently measured.
HMC3 cell line was maintained in Minimum Essential Medium (MEM, Gibco) supplemented with 1× non-essential amino acid (Gibco), 1 mM sodium pyruvate (Gibco), 10% fetal bovine serum (FBS) (Gibco) and 1% penicillin/streptomycin (Gibco). BV-2 cell line was maintained in Roswell Park Memorial Institute (RPMI) 1640 medium (Gibco) supplemented with 10% FBS and 1% penicillin/streptomycin, and HT22 cell line was maintained in Dulbecco's Modified Eagle's Medium (DMEM) (Gibco) supplemented with 10% FBS and 1% penicillin/streptomycin. All cells were incubated at 37° C. in a humidified atmosphere under 5% CO2.
For phenotypic screening of bilobalide (BB) analogues, 5,000 cells per well (100 uL volume) of HT22, HMC3 or BV-2 cells were placed in 96-well plate and allowed to adhere for 22 h. After which, cells were pre-treated with 200 nM (on HT22, HMC3) or 500 nM (on BV-2) of RSL3 (Bidepharm) for 2 h respectively. Medium was then replaced by 50 μM BB analogues and followed by 22 h incubation subsequently. Cell viability was measured using cell counting kit-8 (CCK-8) (MCE). For dose-response of BB analogues, RSL3, HT22 and HMC3 cells (seeded on 96-well plates at 5,000 cells per well) were treated with multiple doses of RSL3 for 2 h. […] Cell viability was measured after 22 h treatment by CCK-8. […] Cell viability was measured by CCK-8 using CLARIOstar monochromator multimode plate reader under 450 nm wavelength.
In this example, the cells were pre-treated with RSL3 (200 nM for HT22 and HMC3, 500 nM for BV-2) for two hours, followed by bilobalide analogues treatment (50 PM) for 22 hours. Cell viability was measured using cell counting kit-8 (CCK-8); n=5 technical replicates. […] Such effect was further investigated by treating the cell lines with various doses of RSL3.

HMC3 cells [3] = type: cell-based; conditions: then 50 μM compound 22 h
GAPDH = GAPDH protein level by Western-blot after RSL3; type: cell-based; conditions: HMC3, 500 nM RSL3 2 h, then various concentrations of compound 8 h
Protocol: as §1
This observation reflected the governing of GPX4 by bilobalide analogue XBB-037, which played an important role in the mechanism against RSL3-induced ferroptosis.

Compound: CC(C)(C)[C@]1(O)C[C@@H]2OC(=O)C[C@@]23C(=O)O[C@@H]2N(c4ccc(N)cc4)C(=O)[C@H](OC(=O)c4ccccc4)[C@]213 [XBB-037, 4-(3aS,5aS,8R,9R,10aS)-8-(benzoyloxy)-9-(tert-butyl)-9-hydroxy-2,4,7-trioxohexahydro-4H,9H-furo[3″,2″:2′,3′]cyclopenta[1′,2′:3,4]furo[2,3-b]pyrrol-6(5aH)-yl)benzenaminium chloride]
- GPX4 level after FIN56 (GPX4; HMC3, FIN56 0.625, 1.25, 2.5 μM 2 h, then 50 μM compound 8 h): significantly restored GPX4 level
- GPX4 level after RSL3 (GPX4; HMC3, RSL3 0, 250, 500 or 750 nM 2 h, then 50 μM compound 4 h): RSL3-induced GPX4 degradation was reduced
- cytotoxicity (cell viability) (HMC3 cells [1]): no significant cytotoxicity
- inhibition of RSL3-induced ferroptosis (phenotypic screening, cell viability) ([2]; HT22, RSL3 200 nM 2 h, then 50 μM compound 22 h): effectively inhibit ferroptosis
- shift of RSL3 dose-dependent viability curve ([2]; HT22, multiple doses of RSL3, 50 μM compound): diminished RSL3 lethality
- protection against FIN56-induced cell death (cell viability) (HMC3 cells [3]; HMC3, FIN56 2 h): effectively suppressed FIN56-induced cell death
- protection against ML162 lethality (cell viability) (HMC3 cells [3]; HMC3, ML162 2 h): alleviated the lethality of ML162
- protection against ML210 lethality (cell viability) (HMC3 cells [3]; HMC3, ML210 2 h): alleviated the lethality of ML210
- protection against erastin-induced lethality (cell viability) (HMC3 cells [3]; HMC3, erastin 2 h): suppressed erastin-induced lethality
- GAPDH level after RSL3 (GAPDH): restored the level of GAPDH
